Test results: patent publication US20030064380A1, “Anergy-regulated molecules” (The Center For Blood Research, Inc., priority 2001, published 2003)

Tested on: D5 or primary T cells
Experiment: apoptosis assays of ionomycin-stimulated T cells
Assay type: cell-based, murine
Settings: several independent assays
Procedure: Apoptosis was detected by the Tunel method using the In situ Cell Death Detection kit (Boheringer) following manufacture's instructions. Stained cells were analyzed on a FACSCAN (Beckton-Dickinson).
Of particular interest was the fact that several of the ionomycin-induced genes encoded proteins involved (or potentially involved) in protein degradation. Candidate genes in this category included caspase-3, SOCS-2 and Traf5 (FIG. 6B). Caspase-3 is an enzyme for which commercial reagents are readily available. Tests were conducted to determine whether caspase-3 was activated and functional in ionomycin-pretreated T cells. […] Further work will be necessary to establish whether proteolysis occurs in specific intracellular compartments relevant to TCR signal transduction or whether other signaling proteins are substrates for proteolysis in anergic cells.

C[C@H](CCC(=O)O)C[C@H](C)C[C@H](C)C(=O)/C=C(\O)[C@H](C)C[C@H](C)C/C=C/[C@@H](C)[C@@H](O)[C@@H](C)[C@@H](O)C[C@@H]1CC[C@@](C)([C@H]2CC[C@@](C)([C@@H](C)O)O2)O1 [Ionomycin, ionomycin]
apoptosis: no detectable apoptosis
